Assay results as given in PubChem BioAssay (NCI).
Where “and” joins values, the source holds several entries; their conditions need not be identical. Identical values can stand only once.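 Cultured in 96-well plates, cells were exposed to test compound for 48 hours across five concentrations. GI50 is the concentration that inhibits growth by half. TGI denotes the concentration required for complete inhibition of growth.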

Legend:
Assay in all cases: DTP human tumour cell line panel, 48 h
COLO 205 colon = test system: COLO 205 colon
HT29 colon = test system: HT29 colon
K-562 leukemia = test system: K-562 leukemia
LOX IMVI melanoma = test system: LOX IMVI melanoma
MOLT-4 leukemia = test system: MOLT-4 leukemia
NCI-H23 lung = test system: NCI-H23 lung
NCI/ADR-RES ovarian = test system: NCI/ADR-RES ovarian
SF-295 CNS = test system: SF-295 CNS
SW-620 colon = test system: SW-620 colon
T-47D breast = test system: T-47D breast

Row | SMILES | TGI (COLO 205 colon) | TGI (HT29 colon) | TGI (K-562 leukemia) | TGI (LOX IMVI melanoma) | TGI (MOLT-4 leukemia) | TGI (NCI-H23 lung) | TGI (NCI/ADR-RES ovarian) [µM] | TGI (SF-295 CNS) | TGI (SW-620 colon) | TGI (T-47D breast) | GI50 (HT29 colon) | GI50 (K-562 leukemia) | GI50 (LOX IMVI melanoma) | GI50 (NCI-H23 lung) | GI50 (NCI/ADR-RES ovarian) [µM] | GI50 (SF-295 CNS) | GI50 (T-47D breast) | GI50 (SW-620 colon)
1 | O=C(Cc1ccccc1)NCCc1ccc(O)c(O)c1 | > 100 µM | > 100 µM | 39.8 µM | > 100 µM | > 100 µM | > 100 µM | > 100 | > 100 µM | > 100 µM | > 100 µM | – | – | – | – | – | – | – | –
2 | c1ccc(CNC2CC(NCc3ccccn3)CC(NCc3ccccn3)C2)nc1 (stereo unspecified) | 4.02 µM and 4.61 µM and 3.21 µM | 14.5 µM and 25 µM and 3.81 µM | 34.6 µM and 25 µM and 28.3 µM | 6.95 µM and 14.5 µM and 7.77 µM | 23.4 µM and 24.8 µM and 33.1 µM | 7.38 µM and 23.4 µM and 3.89 µM | > 100 | 18.9 µM and 20.9 µM and 36.5 µM | 41.7 µM and 25 µM and 32.9 µM | 21.5 µM and 25 µM and 25.6 µM | 3.19 µM and 8.17 µM and 1.96 µM | 3.45 µM and 12.4 µM and 3.71 µM | 2.62 µM and 5.4 µM and 2.83 µM | 2.7 µM and 6.69 µM and 1.99 µM | > 100 | 5.03 µM | 6.64 µM | –
3 | CN1C/C(=C\c2cccs2)C2=NC(=S)NC(c3cccs3)C2C1 (stereo unspecified) | > 100 µM | > 100 µM | > 100 µM | > 100 µM | 92 µM | > 100 µM | > 100 | > 100 µM | > 100 µM | 84.5 µM | – | – | – | – | – | – | – | –
4 | O=C(O)[C@H]1[C@@H](C2CCCCC2)O[C@@H](C2CCCCC2)O[C@H]1C(F)(F)F | 77.9 µM | 44 µM | > 100 µM | 36.5 µM | 45 µM | 42.6 µM | > 100 | 39.5 µM | 52.8 µM | > 100 µM | – | – | – | – | – | – | – | –
5 | O=C1Oc2ccccc2C(=O)/C1=C/N1C(=O)N/C(=C\c2ccccc2O)C1=O | > 100 µM | > 100 µM | > 100 µM | > 100 µM | > 100 µM | > 100 µM | > 100 | > 100 µM | > 100 µM | > 85.5 µM | – | – | – | – | – | – | – | –
6 | CC(C)(C)OC(=O)CN1CCNCCNCC1 | > 100 µM | > 100 µM | > 100 µM | > 100 µM | > 100 µM | > 100 µM | > 100 | > 100 µM | > 100 µM | > 100 µM | – | – | – | – | – | – | – | –
7 | O=c1[nH]c(=O)n(C2CC(O)C(CO)O2)cc1I (stereo unspecified) | > 100 µM | > 100 µM | > 100 µM | > 100 µM | > 100 µM | > 100 µM | > 100 | > 100 µM | > 100 µM | > 100 µM | – | – | – | – | – | – | – | –
8 | CNC(=O)c1ccccc1-[s+]1c2ccccc2c(=O)n1C (stereo unspecified) | > 100 µM | > 100 µM | > 100 µM | > 100 µM | > 100 µM | > 100 µM | > 100 | > 100 µM | > 100 µM | > 100 µM | – | – | – | – | – | – | – | –
9 | CCOC(=O)c1ccc(N=NN(C)C(=O)C(C)N)cc1 (stereo unspecified) | > 100 µM | > 100 µM | > 100 µM | > 100 µM | > 100 µM | > 100 µM | > 100 | > 100 µM | > 100 µM | > 100 µM | – | – | – | – | – | – | – | –
10 | COc1cc(/C=C2/SC(c3ccccc3)N(c3ccc(NC(C)=O)cc3)C2=O)cc(OC)c1OC (stereo unspecified) | > 100 µM | > 100 µM | > 100 µM | > 100 µM | > 100 µM | > 100 µM | > 100 | > 100 µM | > 100 µM | > 100 µM | – | – | – | – | – | – | – | –
11 | C=C(C)[C@@H]1CC[C@]2(C(=O)O)CC[C@]3(C)[C@H](CC[C@@H]4[C@@]5(C)CC(=O)C(C)(C)[C@@H]5CC[C@]43C)[C@@H]12 | 8.71 µM | > 25 µM | > 25 µM | > 25 µM | 14.5 µM | > 25 µM | > 25 | > 25 µM | > 25 µM | > 25 µM | – | – | – | – | – | – | – | –
12 | O=c1cc(CNC2CCCC2)[nH]c(=O)[nH]1 | > 100 µM | > 100 µM | > 100 µM | > 100 µM | > 100 µM | > 100 µM | > 100 | > 100 µM | > 100 µM | > 100 µM | – | – | – | – | – | – | – | –
13 | O=C1c2c(F)c(F)c(F)c(F)c2SC2=NCCN12 | 19 µM | 8.12 µM | > 22.5 µM | 3.07 µM | 6.7 µM | 10.4 µM | 31.3 | 32.4 µM | 6.29 µM | 29 µM | – | – | – | – | – | – | – | –
14 | O=C1NC(N/N=C\C(O)C(O)C(O)CO)=N/C1=C/c1ccccc1 (stereo unspecified) | > 100 µM | > 100 µM | > 100 µM | > 100 µM | > 100 µM and 54.3 µM | > 100 µM | > 100 | > 100 µM | > 100 µM | > 100 µM | – | > 100 µM and 22.7 µM | – | – | – | > 100 µM and 38.2 µM | > 100 µM and 49.2 µM | > 100 µM and 34 µM
15 | O=C1C=CC2CCC1C2 (stereo unspecified) | > 100 µM | > 100 µM | > 100 µM | > 100 µM | > 100 µM | > 100 µM | > 100 | > 100 µM | > 100 µM | > 100 µM | – | – | – | – | – | – | – | –
16 | Nc1nc(Cl)cc(NCC2(O)CC(CO)C2)n1 (stereo unspecified) | > 100 µM | > 100 µM | > 100 µM | > 100 µM | > 100 µM | > 100 µM | > 100 | > 100 µM | > 100 µM | > 100 µM | – | – | – | – | – | – | – | –
